We go through 2 molecules from patent US20180147134A1, “ANTI-CELL SENESCENCE COSMETIC COMPOSITION, USE OF CASEARIA SYLVESTRIS AND/OR HIMENAEA COURBARIL, METHOD OF PREVENTING CELL SENESCENCE AND A METHOD FOR MODULATING THE EXPRESSION OF B-GALACTOSIDASE, P16, P21 AND/OR IL-8” (Natura Cosméticos S.A., priority 2016, published 2018).

What all share (format): cell-based
Test [1] has as its system cell senescence-associated lysosomal b-galactosidase. In words: in vitro model of induced early cell aging (cell senescence), UVA/UVB: senescence-associated lysosomal b-galactosidase (flow cytometry and cytochemical marking). The following applies: in the presence of agent.
From the text: (§1) An in vitro model of induced early cell aging (cell senescence) was developed and used to evaluate whether certain cosmetic ingredients can protect or delay molecular mechanisms that lead to aging of skin cells or to loss of functional competence (loss of cellular vitality).
The subject of the next test is transcription factor p16. In words: in vitro model of induced cell senescence: expression of p16. The following applies: protection of the cells with agent.
In test [2] the test system is inflammatory cytokine IL-8. In words: in vitro model of induced cell senescence: expression of IL-8. The following applies: UVA + agent.
From the text: as §1
The subject of another test is transcription factor p21. In words: in vitro model of induced cell senescence: expression of p21. As to conditions: protection of the cells with agent.

From the text for transcription factor p16: as §1
From the text for transcription factor p21: as §1

Turning to `O=C(O)/C=C/c1ccc(O)c(O)c1` [caffeic acid], the “appearance of b-galactosidase marking induced by UV” value in test [1] is recorded as “reduced”. The “induced expression of p16” value in the test with transcription factor p16 is “reduces”. The “expression of IL-8” value in test [2] is “reduced”.

For `Cc1c(C)c2c(c(C)c1O)CCC(C)(C(=O)O)O2` (stereo not shown) [trolox], the “appearance of b-galactosidase marking induced by UV” value in test [1] is “reduced”. In addition, the “induced expression of p16” value with transcription factor p16 is “reduces”. Besides, the “induced expression of p21” value in the test with transcription factor p21 was “reduces”. Moreover, in test [2], the “expression of IL-8” value is reported as “reduced”.
